Experimental data as given in ChEMBL document CHEMBL3994568 (2016).
Values after ≈ are worked out from the molar mass of the structure shown.

Columns and labels:
Format in all cases: functional
Bacillus = assay: Antibacterial activity against Bacillus proteus ATCC 13315 after 24 hrs by two-fold microbroth dilution method; settings: ATCC 13315, 24 h
Escherichia coli = assay: Antibacterial activity against Escherichia coli JM109 after 24 hrs by two-fold microbroth dilution method; settings: JM109, 24 h
Pseudomonas aeruginosa = assay: Antibacterial activity against Pseudomonas aeruginosa ATCC 27853 after 24 hrs by two-fold microbroth dilution method; settings: ATCC 27853, 24 h
[1] = Antibacterial activity against Eberthella typhosa ATCC 14028 after 24 hrs by two-fold microbroth dilution method; settings: ATCC 14028, 24 h
Staphylococcus aureus [2] = assay: Antibacterial activity against methicillin-resistant Staphylococcus aureus N315 after 24 hrs by two-fold microbroth dilution method; settings: N315, 24 h
Staphylococcus aureus [3] = assay: Antibacterial activity against Staphylococcus aureus ATCC 25923 after 24 hrs by two-fold microbroth dilution method; settings: ATCC 25923, 24 h
Bacillus spizizenii = assay: Antibacterial activity against Bacillus subtilis ATCC 6633 after 24 hrs by two-fold microbroth dilution method; settings: ATCC 6633, 24 h
Micrococcus luteus = assay: Antibacterial activity against Micrococcus luteus ATCC 4698 after 24 hrs by two-fold microbroth dilution method; settings: NCTC 2665, 24 h
Cyberlindnera jadinii = assay: Antifungal activity against Candida utilis ATCC 9950 after 24 hrs by two-fold microbroth dilution method; settings: Williopsis jadinii, ATCC 9950, 24 h
Aspergillus flavus = assay: Antifungal activity against Aspergillus flavus ATCC 204304 after 24 hrs by two-fold microbroth dilution method; settings: ATCC 204304, 24 h
Saccharomyces cerevisiae = assay: Antifungal activity against Saccharomyces cerevisiae ATCC 9763 after 24 hrs by two-fold microbroth dilution method; settings: ATCC 9763, 24 h
Candida albicans = assay: Antifungal activity against Candida albicans ATCC 10231 after 24 hrs by two-fold microbroth dilution method; settings: ATCC 10231, 24 h
Pichia norvegensis = assay: Antifungal activity against Candida mycoderma ATCC 9888 after 24 hrs by two-fold microbroth dilution method; settings: ATCC 9888, 24 h

Row | Compound | MIC (Bacillus) | MIC (Escherichia coli) | MIC (Pseudomonas aeruginosa) | MIC [1] | MIC (Staphylococcus aureus [2]) | MIC (Staphylococcus aureus [3]) | MIC (Bacillus spizizenii) | MIC (Micrococcus luteus) | MIC (Cyberlindnera jadinii) | MIC (Aspergillus flavus) | MIC (Saccharomyces cerevisiae) | MIC (Candida albicans) | MIC (Pichia norvegensis)
1 | CCCCCCCCCCn1c2ccc(-c3csc(N)n3)cc2c2cc(-c3csc(N)n3)ccc21 | 128 µg/mL (≈ 254 µM) | 256 µg/mL (≈ 508 µM) | 512 µg/mL (≈ 1020 µM) | 512 µg/mL (≈ 1020 µM) | 128 µg/mL (≈ 254 µM) | 128 µg/mL (≈ 254 µM) | 512 µg/mL (≈ 1020 µM) | 256 µg/mL (≈ 508 µM) | 256 µg/mL (≈ 508 µM) | 128 µg/mL (≈ 254 µM) | 256 µg/mL (≈ 508 µM) | 128 µg/mL (≈ 254 µM) | 128 µg/mL (≈ 254 µM)
2 | CCCCn1c2ccc(-c3csc(N)n3)cc2c2cc(-c3csc(N)n3)ccc21 | 128 µg/mL (≈ 305 µM) | 128 µg/mL (≈ 305 µM) | 64 µg/mL (≈ 153 µM) | 128 µg/mL (≈ 305 µM) | 256 µg/mL (≈ 610 µM) | 128 µg/mL (≈ 305 µM) | 256 µg/mL (≈ 610 µM) | 128 µg/mL (≈ 305 µM) | 256 µg/mL (≈ 610 µM) | 256 µg/mL (≈ 610 µM) | 128 µg/mL (≈ 305 µM) | 128 µg/mL (≈ 305 µM) | 64 µg/mL (≈ 153 µM)
3 | CCCCn1c2ccc(C(=O)CCl)cc2c2cc(C(=O)CCl)ccc21 | 256 µg/mL (≈ 680 µM) | 512 µg/mL (≈ 1360 µM) | 512 µg/mL (≈ 1360 µM) | 512 µg/mL (≈ 1360 µM) | 256 µg/mL (≈ 680 µM) | 256 µg/mL (≈ 680 µM) | 256 µg/mL (≈ 680 µM) | 256 µg/mL (≈ 680 µM) | 128 µg/mL (≈ 340 µM) | 256 µg/mL (≈ 680 µM) | 512 µg/mL (≈ 1360 µM) | 512 µg/mL (≈ 1360 µM) | 128 µg/mL (≈ 340 µM)
4 | CCCCCCn1c2ccc(-c3csc(N)n3)cc2c2cc(-c3csc(N)n3)ccc21 | 256 µg/mL (≈ 572 µM) | 128 µg/mL (≈ 286 µM) | 32 µg/mL (≈ 71.5 µM) | 256 µg/mL (≈ 572 µM) | 64 µg/mL (≈ 143 µM) | 32 µg/mL (≈ 71.5 µM) | 512 µg/mL (≈ 1140 µM) | 256 µg/mL (≈ 572 µM) | 256 µg/mL (≈ 572 µM) | 512 µg/mL (≈ 1140 µM) | 256 µg/mL (≈ 572 µM) | 256 µg/mL (≈ 572 µM) | 128 µg/mL (≈ 286 µM)
5 | OC(Cn1cncn1)(Cn1cncn1)c1ccc(F)cc1F [FLUCONAZOLE] |  |  |  |  |  |  |  |  | 8 µg/mL (≈ 26.1 µM) | 256 µg/mL (≈ 836 µM) | 16 µg/mL (≈ 52.2 µM) | 32 µg/mL (≈ 104 µM) | 32 µg/mL (≈ 104 µM)
6 | CCCCCn1c2ccc(C(=O)CCl)cc2c2cc(C(=O)CCl)ccc21 | 512 µg/mL (≈ 1310 µM) | 128 µg/mL (≈ 328 µM) | 128 µg/mL (≈ 328 µM) | 256 µg/mL (≈ 656 µM) | 512 µg/mL (≈ 1310 µM) | 256 µg/mL (≈ 656 µM) | 512 µg/mL (≈ 1310 µM) | 512 µg/mL (≈ 1310 µM) | 128 µg/mL (≈ 328 µM) | 128 µg/mL (≈ 328 µM) | 128 µg/mL (≈ 328 µM) | 256 µg/mL (≈ 656 µM) | 256 µg/mL (≈ 656 µM)
7 | O=C(N[C@H](CO)[C@H](O)c1ccc([N+](=O)[O-])cc1)C(Cl)Cl [CHLORAMPHENICOL] | 32 µg/mL (≈ 99 µM) |  |  | 32 µg/mL (≈ 99 µM) | 64 µg/mL (≈ 198 µM) | 8 µg/mL (≈ 24.8 µM) | 32 µg/mL (≈ 99 µM) | 64 µg/mL (≈ 198 µM) |  |  |  |  | 
8 | CCCCCCn1c2ccc(C(=O)CCl)cc2c2cc(C(=O)CCl)ccc21 | 16 µg/mL (≈ 39.6 µM) | 512 µg/mL (≈ 1270 µM) | 16 µg/mL (≈ 39.6 µM) | 256 µg/mL (≈ 633 µM) | 512 µg/mL (≈ 1270 µM) | 512 µg/mL (≈ 1270 µM) | 512 µg/mL (≈ 1270 µM) | 256 µg/mL (≈ 633 µM) | 256 µg/mL (≈ 633 µM) | 512 µg/mL (≈ 1270 µM) | 512 µg/mL (≈ 1270 µM) | 512 µg/mL (≈ 1270 µM) | 256 µg/mL (≈ 633 µM)
9 | CCCCCCCCCCCCCCCCn1c2ccc(-c3csc(N)n3)cc2c2cc(-c3csc(N)n3)ccc21 | 128 µg/mL (≈ 218 µM) | 128 µg/mL (≈ 218 µM) | 512 µg/mL (≈ 871 µM) | 512 µg/mL (≈ 871 µM) | 256 µg/mL (≈ 435 µM) | 256 µg/mL (≈ 435 µM) | 512 µg/mL (≈ 871 µM) | 256 µg/mL (≈ 435 µM) | 128 µg/mL (≈ 218 µM) | 128 µg/mL (≈ 218 µM) | 256 µg/mL (≈ 435 µM) | 512 µg/mL (≈ 871 µM) | 512 µg/mL (≈ 871 µM)
10 | CCCn1c2ccc(-c3csc(N)n3)cc2c2cc(-c3csc(N)n3)ccc21 | 256 µg/mL (≈ 631 µM) | 256 µg/mL (≈ 631 µM) | 128 µg/mL (≈ 316 µM) | 256 µg/mL (≈ 631 µM) | 256 µg/mL (≈ 631 µM) | 128 µg/mL (≈ 316 µM) | 128 µg/mL (≈ 316 µM) | 128 µg/mL (≈ 316 µM) | 128 µg/mL (≈ 316 µM) | 256 µg/mL (≈ 631 µM) | 256 µg/mL (≈ 631 µM) | 64 µg/mL (≈ 158 µM) | 256 µg/mL (≈ 631 µM)
11 | CCCCCCCCn1c2ccc(C(=O)CCl)cc2c2cc(C(=O)CCl)ccc21 | 512 µg/mL (≈ 1180 µM) | 512 µg/mL (≈ 1180 µM) | 256 µg/mL (≈ 592 µM) | 512 µg/mL (≈ 1180 µM) | 512 µg/mL (≈ 1180 µM) | 512 µg/mL (≈ 1180 µM) | 512 µg/mL (≈ 1180 µM) | 512 µg/mL (≈ 1180 µM) | 512 µg/mL (≈ 1180 µM) | 512 µg/mL (≈ 1180 µM) | 256 µg/mL (≈ 592 µM) | 512 µg/mL (≈ 1180 µM) | 512 µg/mL (≈ 1180 µM)
